Patent US8088799B2, “Pharmaceutical composition comprising a sodium hydrogen exchange inhibitor and an angiotensin converting enzyme inhibitor” (Sanofi-Aventis Deutschland GmbH, priority 2002, dated 2012)
Entries after “also recorded” stand apart in the source; their conditions may differ.

Legend:
[1] = system: spontaneously hypertensive rats (SHR); experiment: Survival rate of old spontaneously hypertensive rats under late-onset treatment; assay type: in vivo, rat; design: key to Holm-adjusted log rank test of survival vs. Cariporide / Holm-adjusted log rank test of survival vs. Placebo: * indicates significant difference; n.s. = not significant; details: for Median survival time: time from start of treatment (18th month of life) at which survival rate reaches 50%, Kaplan-Meier estimate
Procedure: (§1) The pharmacological model of spontaneously hypertensive rat is generally accepted to be representative of human essential hypertony. In each experimental group initially 27 18-months old rats were employed. 3 months after the start of treatment, when the number of surviving animals in the placebo control group was only 7, an interim analysis was carried out on 7 animals from each group.
The effect of a ramipril and cariporide combination product on the survival rate of rats with genetically related hypertension was investigated.
(§2) In the experiment old hypertensive rats (age: 18 months) were treated with the NHE inhibitor cariporide or with a subthreshold dose of ramipril with no lowering effect on the blood pressure or with a combination of both substances. For each of the four treatments 27 18-month old rats were employed. A daily dose of 400 mg of cariporide per kg body weight (0.6% cariporide in standard rat feed) and 10 μg ramipril per kg body weight (in the drinking water) were given. 3 months after the start of treatment, when the number of surviving animals in the placebo control group was only 7, an interim analysis was carried out on 7 animals from each group. The remaining, still living rats per group were continuously treated as mentioned above since they were 18 months old.
Thus, in the determination of the survival time […] 18-month old rats were employed in each experimental group (table 1).
There are evidently distinct differences between placebo and product groups on the one hand and between the individual products and the combination after the experiment had lasted only 3-4 months.
The statistical analysis was carried out essentially using the SAS/STAT procedure LIFETEST [SAS Institute Inc. (1989): SAS/STAT User's Guide, Version 6, 4th Edition, Volume 2, Cary, N.C.; SAS Institute Inc.]. The log rank tests were carried out pairwise on the experimental groups and adjusted to obtain a multiple significance level of 5% according to Holm [S. Holm (1979): A Simple Sequentally Rejective Multiple Test Procedure; Scand. J. Statist.; 6, pp 65-70].

[2] = system: hearts of old spontaneously hypertensive rats; experiment: Interim analysis 3 months after start of treatment: heart function, myocardial fibrosis (Hyp/Arg), heart weight; assay type: in vivo, rat; details: 7 animals per group; for Force of myocardial contraction / function of the heart: compared with placebo control hearts, 3 months after start of treatment
Procedure: as §1, §2
As mentioned above, 3 months after the start of treatment, when the number of surviving animals in the placebo control group was only 7, an interim analysis was carried out on 7 animals from each group. The weight of the complete heart and the weight of the left and right ventricle were measured. Just so, the molar ratio of hydroxyproline and ariginine in the heart tissues was measured (measured via HPLC), which is a marker for the myocardial fibrosis. […] Hyp/Arg is the ratio of hydroxyproline to arginine and is regarded as a fibrosis marker.
These effects are also reflected in the weights of the hearts (FIG. 3).

old normotensive rats = details: from WO 00/38661; cited from earlier work
[3] = system: spontaneously hypertensive rats; details: known for some time; cited from earlier work
[4] = age 18 months (start of treatment), 20 rats per group, cariporide 400 mg/kg/day in feed, ramipril 10 μg/kg/day in drinking water
[5] = age 19 months, of 20 rats per group
[6] = age 20 months, of 20 rats per group
[7] = age 21 months, of 20 rats per group
[8] = age 22 months, of 20 rats per group
[9] = age 23 months, of 20 rats per group
[10] = age 24 months, of 20 rats per group
[11] = age 25 months, of 20 rats per group
[12] = age 26 months, of 20 rats per group
[13] = age 27 months, of 20 rats per group
[14] = age 28 months, of 20 rats per group
[15] = age 29 months, of 20 rats per group
[16] = pairwise comparison, multiple significance level of 5%

SMILES | Number of surviving rats [1, 4] | Number of surviving rats [1, 5] | Number of surviving rats [1, 6] | Number of surviving rats [1, 7] | Number of surviving rats [1, 8] | Number of surviving rats [1, 9] | Number of surviving rats [1, 10] | Number of surviving rats [1, 11] | Number of surviving rats [1, 12] | Number of surviving rats [1, 13] | Number of surviving rats [1, 14] | Number of surviving rats [1, 15] | Holm-adjusted log rank test of survival vs. Placebo [1, 16] | Survival rate compared with the placebo treatment ([1]; result in words) | Median survival time [1] [months] | Force of myocardial contraction / function of the heart [2] | further results
CC(C)c1ccc(C(=O)N=C(N)N)cc1S(C)(=O)=O.CS(=O)(=O)O [Cariporide, cariporide] | 20 | 18 | 16 | 12 | 8 | 7 | 7 | 5 | 0 | 0 | 0 | 0 | * | statistically significant improvement in the survival rate | 4.0 | significantly improved the function of the heart | Difference in survival rates between cariporide and ramipril ([1]; result in words, chosen significance level): No significant differences; Weight of the hearts ([2]; 3 months after start of late treatment): significantly smaller weights of the hearts; Myocardial fibrosis (Hyp/Arg ratio of hydroxyproline to arginine) ([2]; 3 months after start of late treatment, HPLC): significantly reduced; also recorded: possible for a preexisting fibrosis to be reduced
CCOC(=O)[C@H](CCc1ccccc1)N[C@@H](C)C(=O)N1[C@H](C(=O)O)C[C@@H]2CCC[C@@H]21 [Ramipril, ramipril] | 20 | 18 | 15 | 11 | 9 | 4 | 0 | 0 | 0 | 0 | 0 | 0 | * | statistically significant improvement in the survival rate | 4.0 | significant reduction in the force of myocardial contraction | Holm-adjusted log rank test of survival vs. Cariporide [1, 16]: n.s.; Protective effect on pathological age-related organ changes (old normotensive rats): no protective effect at all; Life span of spontaneously hypertensive rats [3]: significantly prolongs the life span
